The values below come from ChEMBL document CHEMBL1123008, “Synthesis and antinociceptive activity of 4-(cyclopropylmethyl)-3,4,5,6-tetrahydro-2H-1,5-methano-1, 4-benzodiazocin-9-amine and congeners” (1985).

Holding throughout (type): functional
Assay [1] relates to Rattus norvegicus. The assay is described as follows: In vivo narcotic antagonist activity in rat after subcutaneous administration at 10 mg/kg & convulsions at 20 mg/kg. To be noted: sc.
For assay [2], the system named is Rattus norvegicus. As to the kind of experiment: In vivo narcotic antagonist activity by rat phenazocine antagonism test through subcutaneous administration at 10 mg/kg.
Assay [3] concerns Mus musculus. As to the kind of experiment: Analgesic agonist activity by mouse acetylcholine writhing test through subcutaneous administration. To be noted: sc.
Assay [4] deals with Rattus norvegicus. As to the kind of experiment: In vivo narcotic antagonist activity by rat phenazocine antagonism test through subcutaneous administration.
Assay [5] relates to Rattus norvegicus. The assay is described as follows: Analgesic agonist activity by rat intracarotid bradykinin writhing test through subcutaneous administration. To be noted: sc.
For assay [6], the system named is Rattus norvegicus. The assay is described as follows: In vivo narcotic antagonist activity by rat phenazocine antagonism test through oral administration.
For assay [7], the species on record is Rattus norvegicus. The assay is described as follows: animal or person. To be noted: in Mus musculus, sc.
Assay [8] concerns Rattus norvegicus. The assay is described as follows: In vivo narcotic antagonist activity in rat after subcutaneous administration of the compound.
Assay [9] relates to Rattus norvegicus. As to the kind of experiment: In vivo narcotic antagonist activity in rat after oral administration of the compound.
Assay [10] concerns Rattus norvegicus. The assay is described as follows: Analgesic agonist activity by rat tail-flick test through oral administration; Inactive at 200 mg/kg.
The subject of assay [11] is Rattus norvegicus. As to the kind of experiment: In vivo narcotic antagonist activity by AD50 vs. meperidine through oral administration.
For assay [12], the system named is Rattus norvegicus. The assay is described as follows: In vivo narcotic antagonist activity by rat phenylquinone test through subcutaneous administration. To be noted: sc.
For assay [13], the system named is Rattus norvegicus. As to the kind of experiment: In vivo narcotic antagonist activity by rat phenylquinone test through oral administration.
Assay [14] relates to Rattus norvegicus. As to the kind of experiment: In vivo narcotic antagonist activity by AD50 vs. morphine through subcutaneous administration.
Assay [15] relates to Rattus norvegicus. As to the kind of experiment: In vivo narcotic antagonist activity by AD50 vs. morphine through oral administration.
Assay [16] relates to Rattus norvegicus. The assay is described as follows: In vivo narcotic antagonist activity by AD50 vs. meperidine through subcutaneous administration.
Assay [17] deals with Rattus norvegicus. As to the kind of experiment: Analgesic agonist activity by rat tail-flick test through subcutaneous administration; Inactive at 120 mg/kg. To be noted: sc.
In assay [18] the test system is Rattus norvegicus. As to the kind of experiment: In vivo narcotic antagonist activity in rat after subcutaneous administration at 60 mg/kg & lethal at 120 mg/kg.
Assay [19] concerns Mus musculus. As to the kind of experiment: Maximum analgesic agonist activity obtained by mouse acetylcholine writhing test through subcutaneous administration at 75 mg/kg. Particulars: sc.
Assay [20] relates to Rattus norvegicus. The assay is described as follows: In vivo narcotic antagonist activity in rat after subcutaneous administration at 80 mg/kg. To be noted: sc.

In assay [1], `CCCCNc1ccc2c(c1)N1CCN(CC3CC3)C(C2)C1` (stereo not given) showed an ED50 of 1 mg/kg. This compound also displayed an AD50 in [2] of 1 mg/kg.

On to `Oc1ccc2c(c1)N1CCN(CC3CC3)C(C2)C1` (stereo not given), for which the ED50 in [3] came out at 10 mg/kg; in [5] it was 37 mg/kg. Also, the AD50 amounted to 0.02 mg/kg in assay [4] and 3.2 mg/kg in assay [6].

For `C=CCN1CC[C@]23c4c5ccc(O)c4O[C@H]2[C@@H](O)C=C[C@H]3[C@H]1C5.Cl` [NALORPHINE HYDROCHLORIDE], the ED50 was 2.8 mg/kg in [7] and 0.24 mg/kg in assay [5]. Moreover, in assay [8], the AD50 is 0.032 mg/kg.

In the case of `Nc1ccc2c(c1)N1CCN(CC3CC3)C(C2)C1` (stereo not given), the AD50 in [9] is 3.5 mg/kg; in [4], 1.6 mg/kg; in assay [11], 4.8 mg/kg; in [14] it was 8.6 mg/kg; in assay [15] it was 13 mg/kg; in assay [16], 3.3 mg/kg. Moreover, the ED50 stood at 1 mg/kg in assay [10], 1.8 mg/kg in assay [12], 5.7 mg/kg in assay [13] and 1 mg/kg in assay [17].

As for `CCNc1ccc2c(c1)N1CCN(CC3CC3)C(C2)C1.Cl` (stereo not given), the AD50 in [4] came to 4.4 mg/kg. Also, the Inhibition in assay [18] came out at 17%.

`Nc1ccc2c(c1)N1CCN(CC3CC3)[C@@H](C2)C1` showed an ED50 in assay [3] of 40 mg/kg. This compound also returned an inhibition in vivo at 75 mg/kg in assay [19] of 67%. In addition, the inhibition in vivo at 80 mg/kg in assay [20] came out at 25%.

Turning to `CN1CC[C@]23c4c5ccc(O)c4O[C@H]2[C@@H](O)C=C[C@H]3[C@H]1C5.CN1CC[C@]23c4c5ccc(O)c4O[C@H]2[C@@H](O)C=C[C@H]3[C@H]1C5.O=S(=O)(O)O`, the ED50 in [7] stood at 0.21 mg/kg.

`Nc1ccc2c(c1)N1CCN(CC3CC3)[C@H](C2)C1` returned an ED50 in assay [3] of 1 mg/kg. This compound displayed an AD50 in assay [8] of 0.31 mg/kg.

`C=CCN1CCN2CC1Cc1ccc(N)cc12.CCS(=O)(=O)O` (stereo not given): the AD50 in assay [8] amounted to 1.6 mg/kg.

Compound `CCS(=O)(=O)O.c1ccc2c(c1)CC1CN2CCN1CC1CC1` (stereo not given) gave an AD50 in assay [8] of 34 mg/kg. In [17], this compound gave an ED50 of 1 mg/kg.
